Assay results reported in PubChem BioAssay AID192 (DTP/NCI, 2004).
Where “and” joins values, the source holds several entries; their conditions need not be identical. Equal values may be shown once. Toxic doses and inconclusive results are not listed.

Test system: BDF1 mice, B16 melanoma ip, median survival T/C
Assay: NCI In Vivo Anticancer Drug Screen. Data for tumor model B16 Melanoma (intraperitoneal) in B6D2F1 (BDF1) mice
Details: endpoint: median survival time, higher = longer survival
Summary of the method: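 Survival or tumor size is measured after treatment of tumor-bearing mice and normalised to the vehicle-treated control group.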

[1] = dose: 100.0 mg/kg/injection, schedule: Q01DX009 (ip), vehicle: Klucel (hydroxypropylcellulose) (HPC)
[2] = dose: 200.0 mg/kg/injection, schedule: Q01DX009 (ip), vehicle: Klucel (hydroxypropylcellulose) (HPC)
[3] = dose: 400.0 mg/kg/injection, schedule: Q01DX009 (ip), vehicle: Klucel (hydroxypropylcellulose) (HPC)
[4] = dose: 100.0 mg/kg/injection, schedule: Q01DX009 (ip), vehicle: saline
[5] = dose: 200.0 mg/kg/injection, schedule: Q01DX009 (ip), vehicle: saline
[6] = dose: 6.25 mg/kg/injection, schedule: Q01DX009 (ip), vehicle: saline with Tween-80
[7] = dose: 12.5 mg/kg/injection, schedule: Q01DX009 (ip), vehicle: saline with Tween-80
[8] = dose: 25.0 mg/kg/injection, schedule: Q01DX009 (ip), vehicle: saline with Tween-80
[9] = dose: 50.0 mg/kg/injection, schedule: Q01DX009 (ip), vehicle: saline with Tween-80
[10] = dose: 100.0 mg/kg/injection, schedule: Q01DX009 (ip), vehicle: saline with Tween-80
[11] = dose: 200.0 mg/kg/injection, schedule: Q01DX009 (ip), vehicle: saline with Tween-80
[12] = dose: 12.5 mg/kg/injection, schedule: Q01DX009 (ip), vehicle: Klucel (hydroxypropylcellulose) (HPC)

CCOC(=O)CN=NNc1[nH]ncc1C(N)=O
T/C (dose: 100.0 mg/kg/injection, schedule: Q04DX003 (ip), vehicle: saline with Tween-80): 100 % of control
T/C (dose: 200.0 mg/kg/injection, schedule: Q04DX003 (ip), vehicle: saline with Tween-80): 104 % of control
T/C (dose: 400.0 mg/kg/injection, schedule: Q04DX003 (ip), vehicle: saline with Tween-80): 111 % of control

NCCc1c[nH]c2ccccc12
T/C (dose: 100.0 mg/kg/injection, schedule: Q04DX003 (ip), vehicle: saline): 120 % of control
T/C (dose: 200.0 mg/kg/injection, schedule: Q04DX003 (ip), vehicle: saline): 112 % of control

O=C(Nc1cc(C(F)(F)F)ccc1Cl)c1ccc(Cl)cc1
T/C [1]: 104 % of control
T/C [2]: 100 % of control
T/C [3]: 103 % of control

CC(=O)CC(=O)Nc1ccc(C)c(C)c1
T/C [4]: 92 % of control
T/C [5]: 89 % of control
T/C (dose: 400.0 mg/kg/injection, schedule: Q01DX009 (ip), vehicle: saline): 94 % of control

COc1cccc2c1C(=O)c1c(O)c3c(c(O)c1C2=O)C[C@@](O)(/C(C)=N\NC(=O)CO)C[C@@H]3OC1CC(N)C(O)C(C)O1 (stereo partly drawn)
T/C (dose: 0.39 mg/kg/injection, schedule: Q01DX009 (ip), vehicle: saline): 117 % of control
T/C (dose: 1.56 mg/kg/injection, schedule: Q01DX009 (ip), vehicle: saline): 162 % of control
T/C (dose: 2.5 mg/kg/injection, schedule: Q01DX001 (ip), vehicle: water): 97 % of control and 100 % of control
T/C (dose: 3.12 mg/kg/injection, schedule: Q01DX009 (ip), vehicle: saline): 173 % of control and 218 % of control
T/C (dose: 6.25 mg/kg/injection, schedule: Q01DX009 (ip), vehicle: saline): 206 % of control and 375 % of control
T/C (dose: 10.0 mg/kg/injection, schedule: Q01DX001 (ip), vehicle: water): 108 % of control and 250 % of control
T/C (dose: 20.0 mg/kg/injection, schedule: Q01DX001 (ip), vehicle: water): 87 % of control and 102 % of control
T/C (dose: 40.0 mg/kg/injection, schedule: Q01DX001 (ip), vehicle: water): 95 % of control

CNC(=O)Nc1c(C)cccc1C
T/C [1]: 96 % of control
T/C [2]: 100 % of control

COc1ccccc1NC(=O)Nc1cccc(Cl)c1
T/C [6]: 105 % of control
T/C [7]: 97 % of control
T/C [8]: 100 % of control

CCCCCCCCCCCCCCCC(=O)N(C/C=C/CN(C(=O)CCCCCCCCCCCCCCC)C(C)CCCN(CC)CC)C(C)CCCN(CC)CC (stereo not drawn)
T/C (dose: 3.13 mg/kg/injection, schedule: Q01DX009 (ip), vehicle: other): 98 % of control
T/C (dose: 6.25 mg/kg/injection, schedule: Q01DX009 (ip), vehicle: other): 99 % of control
T/C (dose: 12.5 mg/kg/injection, schedule: Q01DX009 (ip), vehicle: other): 93 % of control

O=C(O)CC(NC(=O)OCc1ccccc1)C(=O)OCc1ccccc1 (stereo not drawn)
T/C (dose: 50.0 mg/kg/injection, schedule: Q01DX009 (ip), vehicle: Klucel (hydroxypropylcellulose) (HPC)): 118 % of control
T/C [1]: 89 % of control
T/C [2]: 92 % of control

CC(C)=CCC1=C(O)c2ccccc2C(=O)C1=O
T/C [6]: 90 % of control
T/C (dose: 8.33 mg/kg/injection, schedule: Q#B X027 (ip), vehicle: water): 100 % of control
T/C [7]: 90 % of control
T/C (dose: 16.66 mg/kg/injection, schedule: Q#B X027 (ip), vehicle: water): 103 % of control
T/C (dose: 16.66 mg/kg/injection, schedule: Q#B X027 (sc), vehicle: water): 106 % of control
T/C (dose: 25.0 mg/kg/injection, schedule: Q#A X018 (oral), vehicle: water): 90 % of control
T/C (dose: 33.33 mg/kg/injection, schedule: Q#B X027 (ip), vehicle: water): 100 % of control
T/C (dose: 33.33 mg/kg/injection, schedule: Q#B X027 (oral), vehicle: water): 100 % of control
T/C (dose: 33.33 mg/kg/injection, schedule: Q#B X027 (sc), vehicle: water): 106 % of control
T/C [9]: 88 % of control and 97 % of control
T/C (dose: 50.0 mg/kg/injection, schedule: Q#A X018 (oral), vehicle: water): 86 % of control
T/C (dose: 66.66 mg/kg/injection, schedule: Q#B X027 (ip), vehicle: water): 96 % of control
T/C (dose: 66.66 mg/kg/injection, schedule: Q#B X027 (oral), vehicle: water): 106 % of control
T/C (dose: 66.66 mg/kg/injection, schedule: Q#B X027 (sc), vehicle: water): 93 % of control
T/C [10]: 95 % of control
T/C (dose: 100.0 mg/kg/injection, schedule: Q01DX018 (oral), vehicle: water): 106 % of control
T/C (dose: 100.0 mg/kg/injection, schedule: Q#A X018 (oral), vehicle: water): 100 % of control
T/C (dose: 133.33 mg/kg/injection, schedule: Q#B X027 (oral), vehicle: water): 120 % of control
T/C (dose: 133.33 mg/kg/injection, schedule: Q#B X027 (sc), vehicle: water): 93 % of control
T/C (dose: 175.0 mg/kg/injection, schedule: Q01DX018 (oral), vehicle: water): 96 % of control
T/C (dose: 175.0 mg/kg/injection, schedule: Q#A X018 (oral), vehicle: water): 113 % of control
T/C [11]: 95 % of control
T/C [5]: 119 % of control
T/C (dose: 250.0 mg/kg/injection, schedule: Q01DX018 (oral), vehicle: water): 106 % of control
T/C (dose: 250.0 mg/kg/injection, schedule: Q#A X018 (oral), vehicle: water): 106 % of control
T/C (dose: 325.0 mg/kg/injection, schedule: Q01DX018 (oral), vehicle: water): 113 % of control

O=c1c2ccccc2sc2ccc(Br)cc12
T/C [1]: 110 % of control
T/C [2]: 100 % of control
T/C [3]: 102 % of control

ClC(Cl)=[C](Cl)[Hg][C](Cl)=C(Cl)Cl
T/C (dose: 3.13 mg/kg/injection, schedule: Q01DX009 (ip), vehicle: Klucel (hydroxypropylcellulose) (HPC)): 120 % of control
T/C (dose: 6.25 mg/kg/injection, schedule: Q01DX009 (ip), vehicle: Klucel (hydroxypropylcellulose) (HPC)): 99 % of control
T/C [12]: 92 % of control

COC(=O)C(N)CSCc1ccccc1 (stereo not drawn)
T/C [4]: 95 % of control
T/C [5]: 106 % of control

C/C=C1\CN(C)[C@H]2Cc3c([nH]c4ccccc34)[C@@H](c3cc4[nH]c5c(c4cc3OC)CCN3C[C@H]4C[C@H](CC)[C@H]3[C@@]5(C(=O)OC)C4)C[C@H]1C2C(=O)OC (stereo partly drawn)
T/C (dose: 2.5 mg/kg/injection, schedule: Q01DX009 (ip), vehicle: suspension in saline): 98 % of control
T/C (dose: 3.0 mg/kg/injection, schedule: Q01DX009 (ip), vehicle: saline with Tween-80): 100 % of control
T/C (dose: 5.0 mg/kg/injection, schedule: Q01DX009 (ip), vehicle: suspension in saline): 101 % of control
T/C (dose: 6.0 mg/kg/injection, schedule: Q01DX009 (ip), vehicle: saline with Tween-80): 95 % of control
T/C (dose: 10.0 mg/kg/injection, schedule: Q01DX009 (ip), vehicle: suspension in saline): 99 % of control
T/C (dose: 12.0 mg/kg/injection, schedule: Q01DX009 (ip), vehicle: saline with Tween-80): 106 % of control
T/C (dose: 25.0 mg/kg/injection, schedule: Q04DX003 (ip), vehicle: saline with Tween-80): 90 % of control
T/C [10]: 87 % of control

Cc1ccc(NC(=O)c2ccccc2)cc1Cl
T/C [1]: 101 % of control
T/C [2]: 103 % of control
T/C [3]: 101 % of control

Cc1c2oc3c(C)ccc(C(=O)NCCN4CCCCC4)c3nc-2c(C(=O)NCCN2CCCCC2)c(N)c1=O
T/C [12]: 97 % of control
T/C (dose: 25.0 mg/kg/injection, schedule: Q01DX009 (ip), vehicle: Klucel (hydroxypropylcellulose) (HPC)): 112 % of control

Oc1cc(Br)ccc1C=Nc1ccc(N2CCCCC2)cc1
T/C [1]: 106 % of control
T/C [2]: 93 % of control
T/C [3]: 93 % of control

Cc1ccc(Cl)cc1NC(=O)CCl
T/C [8]: 102 % of control
T/C [9]: 100 % of control
T/C [10]: 102 % of control

Cc1cccc(NS(=O)(=O)c2ccccc2)c1C
T/C [9]: 98 % of control
T/C [1]: 96 % of control
T/C [10]: 98 % of control
T/C [11]: 97 % of control
T/C [3]: 88 % of control

CCCCCCCCCC(=O)OC(C)C(=O)N(CCCC)CCCC (stereo not drawn)
T/C [8]: 98 % of control
T/C [9]: 97 % of control
T/C [10]: 88 % of control

CCOC(=O)C1C(=O)CC(=O)C(C(=O)OCC)C1c1ccc(O)cc1 (stereo not drawn)
T/C [1]: 100 % of control
T/C [2]: 93 % of control
T/C [3]: 103 % of control

O=S(=O)(c1ccc(NC(=S)N/N=C/c2ccccc2O)cc1)N1CCCCC1
T/C (dose: 25.0 mg/kg/injection, schedule: Q01DX009 (ip), vehicle: olive oil, sesame oil, peanut oil): 87 % of control
T/C (dose: 50.0 mg/kg/injection, schedule: Q01DX009 (ip), vehicle: olive oil, sesame oil, peanut oil): 87 % of control

COc1cccc2c1C(=O)c1c(O)c3c(c(O)c1C2=O)C[C@@](O)(C(=O)CO)C[C@@H]3OC1CC(NCc2ccccc2)C(O)C(C)O1 (stereo partly drawn)
T/C (dose: 15.0 mg/kg/injection, schedule: Q01DX001 (ip), vehicle: water): 156 % of control and 171 % of control
T/C (dose: 30.0 mg/kg/injection, schedule: Q01DX001 (ip), vehicle: water): 171 % of control and 175 % of control
